Test results: US5789188A, “Tetracycline-efflux pump inhibitor screening methods” (priority 1996, dated 1998)
≈ marks a conversion by molar mass, not a printed value. Entries after “also recorded” stand apart in the source; their conditions may differ. Read-outs that look alike come from different tables or passages of the source. Non-standard residues stand in square brackets, D forms with d. Residues, ends and D or L forms follow the SMILES beside them. Orn(N5-OH,N5-Ac) = CC(=O)N(O)CCC[C@H](N)C(=O)O

Key:
[1] = test system: E. coli MC1061 containing pGG57; assay: microbe, parasite or virus in culture; assay type: cell-based; details: Escherichia coli, read-out: MIC (LD 90) of Maximally Induced tetK, pGG57
Method: (§1) E. coli MC1061 containing either pGG57, pCBSal or pGG75 were used to determine the MIC (LD 90) for tetracycline as well as six tetracycline analogs. […] MIC studies were performed in the presence of 0.01 mM IPTG for E. coli MC1061 containing pGG57. […] All of these MIC studies were done in duplicate.

[2] = test system: strain KB3ind; assay type: cell-based, E. coli; details: for response in the Tetracycline Assay (β-galactosidase induction): strain KB3ind, plate assay (plate or liquid assay); on Induction Assay response: key: ±: Possible positive; +: Weak positive; ++: Stronger positive; -: Negative
Method: (§2) To detect tetracyclines, a plate assay is developed that is similar to one described previously (11). Cells are grown in Luria Broth (adjusted with NaOH to pH 7.5) with 25 μg/ml of kanamycin to a cell density of 0.5 absorbance units (600 nm). A 25 ml sample of the culture is harvested by centrifugation and resuspended in 1 ml of broth. The cells are mixed with 25 ml of soft agar (1%, wt/vol) and poured onto 100 ml of LB (pH 7.5)+ kanamycin, within a 22 cm^2 NUNC plate (Corning). Samples are applied by spotting from 2 to 15 μl, or by applying a disc impregnated with a compound, and the plate is incubated for 3-4 hours at 37° C. The plates are overlaid with a solution containing 13.5 mg of 6-bromo-2-naphthyl-β-D-galactopyranoside side and 86.5 mg of fast blue RR (Sigma) dissolved in 2 ml of dimethylsulfoxide, to which 25 ml of soft agar is added. β-Galactosidase is detected by the presence of a purple spot.

[3] = test system: E. coli MC1061 containing pCBSal; assay: MIC (LD 90) of maximally induced tetA (plasmid pCBSal); assay type: cell-based; details: Escherichia coli, read-out: MIC (LD 90) of Maximally Induced tetA, pCBSal
Method: as §1

[4] = test system: E. coli MC1061 containing pGG75; assay: MIC (LD 90) of maximally induced tetC (plasmid pGG75); assay type: cell-based; details: Escherichia coli, read-out: MIC (LD 90) of Maximally Induced tetC, pGG75
Method: as §1

[5] = test system: NK5031 (λStet158-50); assay: Plate assay with control strain containing the cI wild type allele; assay type: cell-based, E. coli; details: 3 μl samples, up to 22.5 ng bleomycin, 150 ng mitomycin C or cinodine
[6] = test system: tetracycline efflux pump (strain KB4 or KB5); assay: Inhibition Assay, plate assay (agar with 5 ng/ml of tetracycline); on Inhibition Assay response: key: ±: Possible positive; +: Weak positive; ++: Stronger positive; -: Negative; assay type: cell-based, E. coli; details: for response in the Inhibition Assay: 5 ng/ml of tetracycline; for Inhibition Assay response: disc on assay plate
Method: as §2
Two assays are developed for detecting inhibitors of the tetA gene product (using strain KB5), or the tetK gene product (using strain KB4). In the Inhibition Assay, cells of strain KB4 or KB5 are treated as described in the tetracycline screen above, except that the agar medium contains 5 ng/ml of tetracycline. Alternatively a Liquid Assay is also developed. Cells are first grown in LB (pH 7.5). Then cells are shifted to medium containing 5 ng/ml of tetracycline, and tetracycline-containing samples are added to aliquots. Cells are then incubated and assayed as described for the Tetracycline Assay. […] However, the intracellular concentration is reduced in tetracycline resistant strains due to the action of the efflux pump, so more tetracycline would be required in the medium to accumulate sufficient tetracycline inside the cell to induce. The Inhibition Assay is designed to detect compounds that cause β-galactosidase induction in the presence of sub-inducing levels of tetracycline for a resistant strain.

[7] = test system: Tn10 derivative of strain KB3ind; assay: Growth in LB medium with nocardamine, Tn10 strain; assay type: cell-based, E. coli; details: for effect on growth in combination with tetracycline: Tn10 strain, 20 μg/ml or 25 μg/ml of tetracycline; for effect on growth, tetracycline absent: no tetracycline in medium
Method: (§3) Cells are grown in LB medium lacking tetracycline, as described in the text, and then aliquots are added to medium containing no tetracycline, or a sub-inhibitory concentration for the particular strain. Nocardamine (μg/ml) is present or absent as indicated.

[8] = test system: strain KB4 or KB5; assay: Synergy Assay, plate assay (agar with 5 μg/ml of tetracycline); assay type: cell-based, E. coli; details: for response in the Synergy Assay: 5 μg/ml of tetracycline
Method: Two types of assays for pump inhibitors are designed using this type of screening organism. The first is a Synergy Assay, which determines the ability of a compound or composition to kill the organism in combination with tetracycline. […] In brief, in a Synergy Assay, the screening cells are treated as described above for the tetracycline assay, except that the agar medium contains 5 μg/ml of tetracycline which is near the MIC for the strains to be used in the screen. […] Alternatively, cells are treated as described above for the tetracycline liquid assay, except that cells are shifted to a medium containing 5 μg/ml of tetracycline.
(§4) In the Synergy Assay, cells are treated as above for the plate assay, except that agar medium contains 5 μg/ml of tetracycline, near the MIC for strain KB4 or KB5. […] Alternatively, cells are treated as above for the liquid assay, except that cells are shifted to medium containing 5 μg/ml of tetracycline.

[9] = test system: strain KB4; assay: Growth in LB medium with nocardamine, strain KB4; assay type: cell-based, E. coli; details: strain KB4, 5 μg/ml of tetracycline
Method: as §3

[10] = test system: strain KB4 or KB5; assay: Synergy Assay, liquid assay (5 μg/ml of tetracycline); assay type: cell-based, E. coli; details: liquid culture
Method: Inhibitory activity is assayed in liquid culture by growing strain KB4 in medium lacking tetracycline and then transferring to medium containing 5 ng/ml of tetracycline, a sub-inducing level of tetracycline due to the action of the efflux pump. Nocardamine is also added as indicated. After 4 generations of growth, the specific activity of β-galactosidase is determined in Miller Units (10). […] Alternatively, aliquots of KB4 are transferred to a medium containing 5 μg/ml of tetracycline and the nocardamine concentration indicated.
as §4

[11] = test system: strain KB3ind; assay: Growth in LB medium with nocardamine, strain KB3ind; assay type: cell-based, E. coli; details: tetracycline-sensitive strain KB3ind, 0.5 μg/ml of tetracycline
Method: FIG. 10 (Parts A, B and C) illustrates the effect of nocardamine on the growth of tetracycline sensitive and resistant cells. Cells are grown in LB medium lacking tetracycline, as described in the text, and then aliquots are added to medium containing no tetracycline, or a sub-inhibitory concentration for the particular strain. Nocardamine (μg/ml) is present or absent as indicated. For strain KB3ind, the tetracycline-sensitive strain, the sub-inhibitory concentration of tetracycline is 0.5 μg/ml. For the Tn10 derivative of strain KB3ind, 20 μg/ml of tetracycline is the sub-inhibitory level. For strain KB4, the modestly tetracycline-resistant organism, 5 μg/ml of tetracycline is the sub-inhibitory concentration.

Compound: CN(C)c1ccc(O)c2c1C[C@H]1C[C@H]3[C@H](N(C)C)C(O)=C(C(N)=O)C(=O)[C@@]3(O)C(O)=C1C2=O [Minocycline]
- MIC [1]: 4 µg/mL (≈ 8.74 µM)
- response in the Tetracycline Assay (β-galactosidase induction) [2]: capable of detecting
- MIC [3]: 14 µg/mL (≈ 30.6 µM)
- MIC [4]: 8 µg/mL (≈ 17.5 µM)

Compound: Cc1c2c(c(O)c3c(O)cccc13)C(=O)C1(O)C(O)=C(C(N)=O)C(=O)C(N(C)C)C1C2 (stereo not drawn) [AnhydroTc]
- MIC [1]: 2 µg/mL (≈ 4.69 µM)
- MIC [3]: 3 µg/mL (≈ 7.04 µM)
- MIC [4]: 2 µg/mL (≈ 4.69 µM)

Compound: CN(C)C1C(=O)C(C(N)=O)=C(O)C2(O)C(=O)C3=C(O)c4c(O)cccc4C(C)(O)C3C(O)C12 (stereo not drawn) [oxyTc]
- MIC [1]: 250 µg/mL (≈ 543 µM)
- MIC [3]: > 300 µg/mL
- MIC [4]: 300 µg/mL (≈ 652 µM)

Compound: C[C@H]1c2cccc(O)c2C(O)=C2C(=O)[C@]3(O)C(O)=C(C(N)=O)C(=O)[C@@H](N(C)C)[C@@H]3[C@@H](O)[C@@H]21 [DoxyTc, doxycycline]
- MIC [1]: 7 µg/mL (≈ 15.8 µM)
- response in the Tetracycline Assay (β-galactosidase induction) [2]: capable of detecting
- MIC [3]: 40 µg/mL (≈ 90 µM)
- MIC [4]: 20 µg/mL (≈ 45 µM)

Compound: cinodine
- response in the Tetracycline Assay (β-galactosidase induction) [2]: No β-galactosidase is detected
- β-galactosidase induction in control strain (cI wild type allele) [5]: inducing β-galactosidase

Compound: CN(C)[C@@H]1C(O)=C(C(N)=O)C(=O)[C@@]2(O)C(O)=C3C(=O)c4c(O)ccc(Cl)c4[C@@](C)(O)[C@H]3C[C@@H]12 [ChlorTc, chlortetracycline]
- MIC [1]: 40 µg/mL (≈ 83.5 µM)
- response in the Tetracycline Assay (β-galactosidase induction) [2]: capable of detecting
- MIC [3]: 50 µg/mL (≈ 104 µM)
- MIC [4]: 40 µg/mL (≈ 83.5 µM)

Compound: CN(C)[C@@H]1C(=O)C(C(N)=O)=C(O)[C@@]2(O)C(=O)C3=C(O)c4c(O)cccc4C[C@H]3C[C@@H]12 [6-demethyl 6-deoxyTc, 6-demethyl-6-deoxytetracycline]
- MIC [1]: 7 µg/mL (≈ 16.9 µM)
- response in the Tetracycline Assay (β-galactosidase induction) [2]: capable of detecting
- MIC [3]: 20 µg/mL (≈ 48.3 µM)
- MIC [4]: 20 µg/mL (≈ 48.3 µM)

Compound: O=C1CCC(=O)N(O)CCCCCNC(=O)CCC(=O)N(O)CCCCCNC(=O)CCC(=O)N(O)CCCCCN1 [nocardamine]
- response in the Inhibition Assay ([6]; plate assay): induction
- response in the Inhibition Assay ([6]; plate assay, listed as Nocardamine): detected
- amount sufficient to detect activity in the Inhibition Assay ([6]; plate assay, strains KB4 and KB5): One
- effect on growth in combination with tetracycline [7]: severe growth inhibition; also recorded: inhibits growth
- effect on growth in combination with tetracycline ([7]; listed as Nocardamine): inhibits the growth
- effect on growth, tetracycline absent [7]: little or no effect
- effect on growth, tetracycline absent ([7]; listed as Nocardamine): little effect
- response in the Tetracycline Assay (β-galactosidase induction) [2]: no response
- response in the Synergy Assay [8]: differential growth inhibition
- response in the Synergy Assay ([8]; listed as Nocardamine): detected
- amount sufficient to detect activity in the Synergy Assay ([8]; strains KB4 and KB5): One
- effect on growth in combination with tetracycline [9]: severe growth inhibition
- effect on β-galactosidase production / growth [10]: marked decrease in β-galactosidase; also recorded: growth inhibition
- effect on growth in combination with tetracycline [11]: affects the growth; also recorded: is affected

Compound: bleomycin
- response in the Tetracycline Assay (β-galactosidase induction) [2]: No β-galactosidase is detected
- β-galactosidase induction in control strain (cI wild type allele) [5]: inducing β-galactosidase

Compound: CCCCc1ccc(C(=O)O)nc1 [fusaric acid]
- response in the Inhibition Assay ([6]; plate assay): do not test positive
- response in the Synergy Assay [8]: do not test positive

Compound: CC(=O)N([O-])CCC[C@@H]1NC(=O)CNC(=O)CNC(=O)CNC(=O)[C@H](CCCN([O-])C(C)=O)NC(=O)[C@H](CCCN([O-])C(C)=O)NC1=O.[Fe+3] [ferrichrome] (cyclo(GGG[Orn(N5-OH,N5-Ac)][Orn(N5-OH,N5-Ac)][Orn(N5-OH,N5-Ac)]))
- response in the Inhibition Assay ([6]; plate assay): test positive
- response in the Synergy Assay [8]: test positive

Compound: C/C(=C/C(=O)N([O-])CCCC1NC(=O)CNC(=O)C(CO)NC(=O)C(CO)NC(=O)C(CCCN([O-])C(=O)/C=C(/C)CC(=O)O)NC(=O)C(CCCN([O-])C(=O)/C=C(\C)CC(=O)O)NC1=O)CC(=O)O.[Fe+3] (stereo not drawn) [ferrichromeA]
- response in the Inhibition Assay ([6]; plate assay): test positive
- response in the Synergy Assay [8]: test positive

Compound: NC[C@H]1O[C@H](O[C@H]2[C@H](O)[C@@H](O[C@H]3O[C@H](CO)[C@@H](O)[C@H](N)[C@H]3O)[C@H](N)C[C@@H]2N)[C@H](N)C[C@@H]1O [Tobramycin]
- Inhibition Assay response [6]: -
- Induction Assay response ([2]; disc on assay plate): -

Compound: CO[C@@]12[C@H](COC(N)=O)C3=C(C(=O)C(C)=C(N)C3=O)N1C[C@@H]1N[C@@H]12 [Mitomycin]
- Inhibition Assay response [6]: -
- Induction Assay response [2]: -
- response in the Tetracycline Assay (β-galactosidase induction) [2]: No β-galactosidase is detected
- β-galactosidase induction in control strain (cI wild type allele) [5]: inducing β-galactosidase

Compound: C[C@H]1[C@H](NC(=O)/C(=N\OC(C)(C)C(=O)O)c2csc(N)n2)C(=O)N1S(=O)(=O)O [Aztreonam]
- Inhibition Assay response [6]: -
- Induction Assay response ([2]; disc on assay plate): -

Compound: Nc1ccc(S(=O)(=O)Nc2ncccn2)cc1 [Sulfadiazine]
- Inhibition Assay response [6]: -
- Induction Assay response [2]: -

Compound: NC[C@H]1O[C@H](O[C@H]2[C@H](O)[C@@H](O[C@H]3O[C@H](CO)[C@@H](O)[C@H](N)[C@H]3O)[C@H](N)C[C@@H]2N)[C@H](O)[C@@H](O)[C@@H]1O [Kanamycin]
- Inhibition Assay response [6]: -
- Induction Assay response [2]: -

Compound: CC1(C)S[C@@H]2[C@H](NC(=O)Cc3ccccc3)C(=O)N2[C@H]1C(=O)O [Penicillin G]
- Inhibition Assay response [6]: -
- Induction Assay response ([2]; disc on assay plate): -
